Structures are written as SMILES.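 Growth conditions: 96-well plates. Treatment: test compound, 48 hours, 5 concentrations. Analysis: linear interpolation between bracketing concentrations; unreached endpoints set to highest concentration. At the TGI there is no net growth.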

We go through 19 compounds from PubChem BioAssay (NCI).

Test systems include M14 melanoma; HT29 colon; K-562 leukemia; SR leukemia; NCI-H522 lung; SN12C renal; HOP-92 NSCLC; CAKI-1 renal; SK-OV-3 ovarian; 786-0 renal.
Test in all cases: NCI anticancer screen, dose series, 48 h

Regarding `CC1(C)C2CCC1(CS(=O)(=O)Nc1ccccc1)C(=O)C2` (stereo not given), the TGI in the assay on M14 melanoma, in the assay with HT29 colon, in the assay with K-562 leukemia, in the assay on SR leukemia, in the assay on NCI-H522 lung and in the assay with SN12C renal was greater than 100 µM in each case. Also, the TGI in the assay on HOP-92 NSCLC, with CAKI-1 renal, in the assay on SK-OV-3 ovarian and in the assay on 786-0 renal was greater than 100 µM throughout.

In the case of `CC(=O)N1N=C(c2c(O)ccc3ccccc23)CC1C(=O)c1ccco1` (stereo not given), the TGI in the assay on M14 melanoma is greater than 100 µM; in the assay with HT29 colon, greater than 100 µM; in the assay with K-562 leukemia, 49.2 µM; in the assay with SR leukemia, 45.3 µM; in the assay with NCI-H522 lung, greater than 100 µM; in the assay with SN12C renal, greater than 100 µM. The TGI in the assay on HOP-92 NSCLC, in the assay with CAKI-1 renal, with SK-OV-3 ovarian and in the assay on 786-0 renal was greater than 100 µM in each case.

For `O=C1Cc2c(-c3ccc(Cl)cc3)cc(-c3ccccc3)nc2-c2ccccc2N1`, the TGI in the assay on M14 melanoma is greater than 100 µM; in the assay on HT29 colon, greater than 42.8 µM; in the assay on K-562 leukemia it was greater than 100 µM; in the assay with SR leukemia, greater than 100 µM; with NCI-H522 lung, 32.9 µM; in the assay on SN12C renal it was 25 µM. Also, the TGI in the assay with HOP-92 NSCLC is 14.6 µM; in the assay with CAKI-1 renal it was 19.4 µM; in the assay on SK-OV-3 ovarian, 18.8 µM; in the assay on 786-0 renal, 4.92 µM.

On to `Nn1c(Cc2ccc(Cl)cc2)n[nH]c1=O`, for which the TGI with M14 melanoma, in the assay on HT29 colon, in the assay on K-562 leukemia, in the assay with SR leukemia, in the assay on NCI-H522 lung and in the assay with SN12C renal was greater than 100 µM throughout. Besides, the TGI with HOP-92 NSCLC, in the assay on CAKI-1 renal, in the assay on SK-OV-3 ovarian and with 786-0 renal was greater than 100 µM throughout.

As to `COc1cc(C2c3cc4c(cc3C(O)C3CCC(=O)N23)OCO4)cc(OC)c1OC` (stereo not given), the TGI was greater than 100 µM with M14 melanoma; 76.7 µM in the assay with HT29 colon; greater than 100 µM with K-562 leukemia; greater than 100 µM in the assay with SR leukemia; 89.9 µM with NCI-H522 lung; greater than 100 µM in the assay with SN12C renal. The TGI in the assay with HOP-92 NSCLC, with CAKI-1 renal, with SK-OV-3 ovarian and with 786-0 renal was greater than 100 µM throughout.

As to `Nc1ccc2c(c1)C1Oc3ccccc3CC1CO2` (stereo not given), the TGI with M14 melanoma, in the assay on HT29 colon, in the assay on K-562 leukemia, in the assay with SR leukemia, in the assay on NCI-H522 lung and in the assay with SN12C renal was greater than 100 µM in each case. For the same compound, the TGI in the assay on HOP-92 NSCLC, in the assay with CAKI-1 renal, with SK-OV-3 ovarian and in the assay on 786-0 renal was greater than 100 µM in each case.

For `CC1(C)CCC[C@]2(C)[C@@H]1CC[C@@]13O[C@@H]1C1=C(CO)C(=O)O[C@]14O[C@@H]4[C@@H]23`, the TGI in the assay with M14 melanoma is 23.6 µM; in the assay on HT29 colon it was 26.2 µM; in the assay on K-562 leukemia, greater than 55.2 µM; in the assay on SR leukemia it was greater than 100 µM; with NCI-H522 lung, 22 µM; in the assay on SN12C renal, 20.5 µM. The TGI with HOP-92 NSCLC came out at 29.3 µM; in the assay on CAKI-1 renal, 36.4 µM; in the assay with SK-OV-3 ovarian, 31.7 µM; in the assay on 786-0 renal, 29.8 µM.

For `CC1(C)O[C@H](C(=O)O)[C@@H](C(=O)O)O1`, the TGI with M14 melanoma, in the assay with HT29 colon, in the assay with K-562 leukemia, in the assay with SR leukemia, with NCI-H522 lung and in the assay on SN12C renal was greater than 100 µM throughout. In addition, the TGI in the assay with HOP-92 NSCLC, with CAKI-1 renal, in the assay with SK-OV-3 ovarian and in the assay on 786-0 renal was greater than 100 µM throughout.

`CCCCC/C=C1/CC(CO)(COC(=O)CC(C(C)C)C(C)C)OC1=O` (stereo not given): the TGI in the assay on M14 melanoma came to 27.1 µM; with HT29 colon, 34.9 µM; in the assay with K-562 leukemia, 66.3 µM; with SR leukemia, 42.8 µM; in the assay on NCI-H522 lung it was 29.9 µM; with SN12C renal it was 26 µM. Moreover, the TGI was 21.5 µM in the assay on HOP-92 NSCLC, 23.1 µM in the assay with CAKI-1 renal, 40.4 µM in the assay with SK-OV-3 ovarian and 22.3 µM in the assay with 786-0 renal.

As for `CCOC(=O)C(=[N+]=[N-])C(=O)C[N+]12CCN(CC1)CC2`, the TGI with M14 melanoma, with HT29 colon, in the assay with K-562 leukemia, with SR leukemia, in the assay with NCI-H522 lung and in the assay with SN12C renal was greater than 100 µM each time. Also, the TGI in the assay with HOP-92 NSCLC, with CAKI-1 renal, in the assay with SK-OV-3 ovarian and with 786-0 renal was greater than 100 µM each time.

For `CCOC(=O)c1c(SC(=O)c2cc(OC)c(OC)c(OC)c2)n(-c2ccccc2)c(=S)n(-c2ccccc2)c1=O`, the TGI in the assay with M14 melanoma, with HT29 colon, in the assay with K-562 leukemia, with SR leukemia, in the assay on NCI-H522 lung and in the assay on SN12C renal was greater than 100 µM in each case. Also, the TGI in the assay with HOP-92 NSCLC, in the assay with CAKI-1 renal, with SK-OV-3 ovarian and with 786-0 renal was greater than 100 µM in each case.

On to `COc1ccc2c(c1)OCC1(O)Cc3ccccc3OC21` (stereo not given), for which the TGI in the assay with M14 melanoma, with HT29 colon, in the assay with K-562 leukemia, with SR leukemia, in the assay with NCI-H522 lung and in the assay with SN12C renal was greater than 100 µM each time. Also, the TGI with HOP-92 NSCLC, in the assay with CAKI-1 renal, in the assay on SK-OV-3 ovarian and in the assay with 786-0 renal was greater than 100 µM in each case.

With `N/C(=N\N=C\c1ccc2c(c1)OCO2)NO`, the TGI in the assay on M14 melanoma is 32.5 µM; in the assay on HT29 colon it was greater than 100 µM; in the assay on K-562 leukemia it was 50.7 µM; in the assay with SR leukemia, 31.7 µM; in the assay with NCI-H522 lung, greater than 100 µM; with SN12C renal, greater than 100 µM. Moreover, the TGI in the assay on HOP-92 NSCLC is 83.1 µM; in the assay with CAKI-1 renal, greater than 100 µM; in the assay with SK-OV-3 ovarian, greater than 100 µM; in the assay on 786-0 renal it was 37.7 µM.

Turning to `CC(C)(C)c1cc(C(O)(C(=O)O)C(=O)O)cc(C(C)(C)C)c1O`, the TGI in the assay on M14 melanoma, in the assay with HT29 colon, with K-562 leukemia, in the assay with SR leukemia, in the assay on NCI-H522 lung and with SN12C renal was greater than 100 µM throughout. For the same compound, the TGI in the assay on HOP-92 NSCLC, in the assay with CAKI-1 renal, in the assay with SK-OV-3 ovarian and in the assay with 786-0 renal was greater than 100 µM each time.

As for `CC(C)(C)C#C[P+](c1ccccc1)(c1ccccc1)c1ccccc1`, the TGI in the assay with M14 melanoma came to 1.21 µM; in the assay on HT29 colon, 1.11 µM; in the assay with K-562 leukemia, 4.83 µM; in the assay with SR leukemia, 0.611 µM; with NCI-H522 lung it was 0.448 µM; in the assay with SN12C renal it was 0.877 µM. In addition, the TGI came to 0.689 µM in the assay on HOP-92 NSCLC, 2.91 µM in the assay with CAKI-1 renal, 1.81 µM in the assay on SK-OV-3 ovarian and 1.51 µM with 786-0 renal.

On to `Oc1ccc2c(c1)-c1c(c3cc(O)ccc3n1CCN1CCOCC1)CC2`, for which the TGI was 50.1 µM in the assay with M14 melanoma; 59.8 µM with HT29 colon; 41 µM with K-562 leukemia; 61.8 µM with SR leukemia; 40.4 µM in the assay on NCI-H522 lung; greater than 100 µM in the assay with SN12C renal. Also, the TGI in the assay on HOP-92 NSCLC was greater than 100 µM; in the assay on CAKI-1 renal, 70.5 µM; in the assay on SK-OV-3 ovarian, 81.2 µM; in the assay with 786-0 renal it was 53.3 µM.

As for `COCn1c2ccc(OC(C)=O)cc2c2c(=O)oc(C)nc21`, the TGI with M14 melanoma, in the assay on HT29 colon, with K-562 leukemia, in the assay on SR leukemia, in the assay with NCI-H522 lung and with SN12C renal was greater than 100 µM each time. Further, the TGI in the assay on HOP-92 NSCLC, with CAKI-1 renal, in the assay on SK-OV-3 ovarian and in the assay on 786-0 renal was greater than 100 µM throughout.

Consider `COc1ccc2oc(S(=O)(=O)N3CC(CCl)c4ccc([N+](=O)[O-])cc43)cc2c1` (stereo not given), for which the TGI with M14 melanoma was 32.7 µM; in the assay with HT29 colon it was 68 µM; in the assay on K-562 leukemia, 0.285 µM; with SR leukemia it was greater than 100 µM; with NCI-H522 lung, 0.246 µM; in the assay with SN12C renal, 14 µM. In addition, the TGI was greater than 73.8 µM in the assay with HOP-92 NSCLC, 0.239 µM in the assay on CAKI-1 renal, 4.83 µM with SK-OV-3 ovarian and 5.47 µM with 786-0 renal.

Regarding `COc1cc2c(cc1OC)C1CN3C(=O)CCC3C(O)C1c1cc(OC)c(OC)cc1-2` (stereo not given), the TGI in the assay on M14 melanoma, in the assay on HT29 colon, in the assay with K-562 leukemia, in the assay on SR leukemia, in the assay with NCI-H522 lung and in the assay on SN12C renal was greater than 100 µM each time. Further, the TGI in the assay on HOP-92 NSCLC, with CAKI-1 renal, in the assay with SK-OV-3 ovarian and in the assay on 786-0 renal was greater than 100 µM in each case.
